Consider 16 compounds from patent USRE37781E1, “Substituted cyclic carbonyls and derivatives thereof useful as retroviral protease inhibitors” (DuPont Pharmaceuticals Company, priority 1991, dated 2002).

Molecules are shown by their SMILES.

The first data set deals with HIV-1 (RF) in MT-2 cells. The data set can be described thus: microbe, parasite or virus in culture. In kind it is cell-based. The conditions noted are these: Human immunodeficiency virus 1, MT2, 48 h, Table 2d; class symbols; read-out: IC90. In outline:
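Read-out: gag and pol viral RNA captured by 5′-biotinylated oligonucleotides on streptavidin-coated wells, detected with alkaline phosphatase-linked reporter oligonucleotides, calibrated against BH10 in vitro transcripts. Virus stocks (RF, MN, IIIB) come from H9 cultures; MT-2 host cells kept in RPMI 1640, 5% FCS.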
Take `O=C1N(Cc2ccc(CO)cc2)C(Cc2ccccc2)C(O)C(O)C(Cc2ccccc2)N1Cc1cccc([N+](=O)[O-])c1` (stereo not drawn) [15J]: the 90% effect concentration (IC90) was below 10 mg/L.
Regarding `CCC(O)CN1C(=O)N(CC(O)CC)C(Cc2ccccc2)C(O)C(O)C1Cc1ccccc1` (stereo not drawn) [15VN], the IC90 is above 50 mg/L.
With `CCN(CC)C(=O)c1cccc(CN2C(=O)N(Cc3cccc(C(=O)N(CC)CC)c3)C(Cc3ccccc3)C(O)C(O)C2Cc2ccccc2)c1` (stereo not drawn) [15WF], the IC90 was below 10 mg/L.
Same read-out and setting: under `O=C1NC(Cc2ccccc2)C(O)C(O)C(Cc2ccccc2)N1Cc1cccc(CO)c1` (stereo not drawn) [15WI] stands below 10 mg/L.
Same read-out and setting: under `CCN(CC)C(=O)c1cccc(CN2C(=O)N(Cc3cccc(CO)c3)C(Cc3ccccc3)C(O)C(O)C2Cc2ccccc2)c1` (stereo not drawn) [15WJ] stands below 10 mg/L; under `CC(C)NC(=O)c1cccc(CN2C(=O)N(Cc3cccc(C(=O)O)c3)C(Cc3ccccc3)C(O)C(O)C2Cc2ccccc2)c1` (stereo not drawn) [15WN], below 10 mg/L; under `CCCNC(=O)c1cccc(CN2C(=O)N(Cc3cccc(C(=O)O)c3)C(Cc3ccccc3)C(O)C(O)C2Cc2ccccc2)c1` (stereo not drawn) [15WO], below 10 mg/L.
Still for that read-out and setting: as for `O=C(O)c1cccc(CN2C(=O)N(Cc3ccccc3)C(Cc3ccccc3)C(O)C(O)C2Cc2ccccc2)c1` (stereo not drawn) [15WP], the figure is below 10 mg/L; as for `O=C(O)c1cccc(CN2C(=O)N(CC3CC3)C(Cc3ccccc3)C(O)C(O)C2Cc2ccccc2)c1` (stereo not drawn) [15WQ], below 10 mg/L.
Take `O=C(O)c1cccc(CN2C(=O)N(Cc3ccc(CO)cc3)C(Cc3ccccc3)C(O)C(O)C2Cc2ccccc2)c1` (stereo not drawn) [15WR]: the 90% effect concentration (IC90) is below 10 mg/L.
Still for that read-out and setting: as for `NC(=O)c1cccc(CN2C(=O)N(Cc3ccc(CO)cc3)C(Cc3ccccc3)C(O)C(O)C2Cc2ccccc2)c1` (stereo not drawn) [15WT], the figure is below 10 mg/L.
Take `NC(=O)c1cccc(CN2C(=O)N(CC3CC3)C(Cc3ccccc3)C(O)C(O)C2Cc2ccccc2)c1` (stereo not drawn) [15WV]: the IC90 is below 10 mg/L.
On the same count and under the same terms, under `NC(=O)c1cccc(CN2C(=O)NC(Cc3ccccc3)C(O)C(O)C2Cc2ccccc2)c1` (stereo not drawn) [15WW] stands below 10 mg/L.
Still for that read-out and setting: as for `CNc1cccc(CN2C(=O)N(Cc3ccc4ccccc4c3)C(Cc3ccccc3)C(O)C(O)C2Cc2ccccc2)c1` (stereo not drawn) [15WZ], the figure is below 10 mg/L.

The same data set, now with this note: Human immunodeficiency virus 1, MT2, Table 2m; read-out: IC90.
`O=S1(=O)N(Cc2ccc(CO)cc2)C(Cc2ccccc2)C(O)C(O)C(Cc2ccccc2)N1Cc1ccc(CO)cc1` (stereo not drawn) [23B]: the IC90 is below 10 mg/L.
Still for that read-out and setting: under `O=[N+]([O-])c1cccc(CN2C(Cc3ccccc3)C(O)C(O)C(Cc3ccccc3)N(Cc3cccc([N+](=O)[O-])c3)S2(=O)=O)c1` (stereo not drawn) [23L] stands below 10 mg/L.

System in the next data set: not given
Test: not given
Conditions: not given
Compound `O=C1N(Cc2ccc(CO)cc2)C(Cc2ccccc2)C(O)C(O)C(Cc2ccccc2)N1Cc1cccc([N+](=O)[O-])c1` (stereo not drawn) [15J] returned a melting point of 92 °C.
On the same count and under the same terms, under `CCC(O)CN1C(=O)N(CC(O)CC)C(Cc2ccccc2)C(O)C(O)C1Cc1ccccc1` (stereo not drawn) [15VN] stands 99.2 °C; under `CCN(CC)C(=O)c1cccc(CN2C(=O)N(Cc3cccc(C(=O)N(CC)CC)c3)C(Cc3ccccc3)C(O)C(O)C2Cc2ccccc2)c1` (stereo not drawn) [15WF], 89 to 91 °C.
On the same count and under the same terms, as for `O=C1NC(Cc2ccccc2)C(O)C(O)C(Cc2ccccc2)N1Cc1cccc(CO)c1` (stereo not drawn) [15WI], the figure is 176 to 177 °C; as for `CCN(CC)C(=O)c1cccc(CN2C(=O)N(Cc3cccc(CO)c3)C(Cc3ccccc3)C(O)C(O)C2Cc2ccccc2)c1` (stereo not drawn) [15WJ], 88.9 to 90 °C.
Still for that read-out and setting: under `CC(C)NC(=O)c1cccc(CN2C(=O)N(Cc3cccc(C(=O)O)c3)C(Cc3ccccc3)C(O)C(O)C2Cc2ccccc2)c1` (stereo not drawn) [15WN] stands 164 to 167 °C; under `CCCNC(=O)c1cccc(CN2C(=O)N(Cc3cccc(C(=O)O)c3)C(Cc3ccccc3)C(O)C(O)C2Cc2ccccc2)c1` (stereo not drawn) [15WO], 151 to 153 °C; under `O=C(O)c1cccc(CN2C(=O)N(Cc3ccccc3)C(Cc3ccccc3)C(O)C(O)C2Cc2ccccc2)c1` (stereo not drawn) [15WP], 122 to 124 °C.
With `O=C(O)c1cccc(CN2C(=O)N(CC3CC3)C(Cc3ccccc3)C(O)C(O)C2Cc2ccccc2)c1` (stereo not drawn) [15WQ], the melting point is 135 to 137 °C.
The same measure, in the same setting: under `O=C(O)c1cccc(CN2C(=O)N(Cc3ccc(CO)cc3)C(Cc3ccccc3)C(O)C(O)C2Cc2ccccc2)c1` (stereo not drawn) [15WR] stands 130 to 132 °C.
Still for that read-out and setting: under `NC(=O)c1cccc(CN2C(=O)N(Cc3ccc(CO)cc3)C(Cc3ccccc3)C(O)C(O)C2Cc2ccccc2)c1` (stereo not drawn) [15WT] stands 123 to 124 °C; under `NC(=O)c1cccc(CN2C(=O)N(CC3CC3)C(Cc3ccccc3)C(O)C(O)C2Cc2ccccc2)c1` (stereo not drawn) [15WV], 128 to 130 °C.
The same measure, in the same setting: as for `NC(=O)c1cccc(CN2C(=O)NC(Cc3ccccc3)C(O)C(O)C2Cc2ccccc2)c1` (stereo not drawn) [15WW], the figure is 114 to 116 °C; as for `CNc1cccc(CN2C(=O)N(Cc3ccc4ccccc4c3)C(Cc3ccccc3)C(O)C(O)C2Cc2ccccc2)c1` (stereo not drawn) [15WZ], 98 to 100 °C.
`O=S1(=O)N(Cc2ccc(CO)cc2)C(Cc2ccccc2)C(O)C(O)C(Cc2ccccc2)N1Cc1ccc(CO)cc1` (stereo not drawn) [23B] yielded a melting point of 189 to 190 °C.
Still for that read-out and setting: under `O=[N+]([O-])c1cccc(CN2C(Cc3ccccc3)C(O)C(O)C(Cc3ccccc3)N(Cc3cccc([N+](=O)[O-])c3)S2(=O)=O)c1` (stereo not drawn) [23L] stands 196 to 198 °C.

For the next data set, the target named is single-chain tethered dimer of HIV protease (Human immunodeficiency virus 1, UniProt P04585). The data set can be described thus: biochemical. More on the design: fused on or other part: A second copy of the same protease unit is joined to the first by a short peptide tether, giving one polypeptide. It counts as biochemical. Conditions: read-out: HPLC K1; Table 2d; class symbols.
As for `O=C1N(Cc2ccc(CO)cc2)C(Cc2ccccc2)C(O)C(O)C(Cc2ccccc2)N1Cc1cccc([N+](=O)[O-])c1` (stereo not drawn) [15J], the Ki was below 0.01 µM.
On the same count and under the same terms, under `CCC(O)CN1C(=O)N(CC(O)CC)C(Cc2ccccc2)C(O)C(O)C1Cc1ccccc1` (stereo not drawn) [15VN] stands above 1 µM; under `CCN(CC)C(=O)c1cccc(CN2C(=O)N(Cc3cccc(C(=O)N(CC)CC)c3)C(Cc3ccccc3)C(O)C(O)C2Cc2ccccc2)c1` (stereo not drawn) [15WF], below 0.01 µM; under `O=C1NC(Cc2ccccc2)C(O)C(O)C(Cc2ccccc2)N1Cc1cccc(CO)c1` (stereo not drawn) [15WI], below 0.01 µM.
The same measure, in the same setting: under `CCN(CC)C(=O)c1cccc(CN2C(=O)N(Cc3cccc(CO)c3)C(Cc3ccccc3)C(O)C(O)C2Cc2ccccc2)c1` (stereo not drawn) [15WJ] stands below 0.01 µM.
Still for that read-out and setting: under `CC(C)NC(=O)c1cccc(CN2C(=O)N(Cc3cccc(C(=O)O)c3)C(Cc3ccccc3)C(O)C(O)C2Cc2ccccc2)c1` (stereo not drawn) [15WN] stands below 0.01 µM.
On to `CCCNC(=O)c1cccc(CN2C(=O)N(Cc3cccc(C(=O)O)c3)C(Cc3ccccc3)C(O)C(O)C2Cc2ccccc2)c1` (stereo not drawn) [15WO], for which the Ki is below 0.01 µM.
Still for that read-out and setting: as for `O=C(O)c1cccc(CN2C(=O)N(Cc3ccccc3)C(Cc3ccccc3)C(O)C(O)C2Cc2ccccc2)c1` (stereo not drawn) [15WP], the figure is below 0.01 µM; as for `O=C(O)c1cccc(CN2C(=O)N(CC3CC3)C(Cc3ccccc3)C(O)C(O)C2Cc2ccccc2)c1` (stereo not drawn) [15WQ], below 0.01 µM.
On to `O=C(O)c1cccc(CN2C(=O)N(Cc3ccc(CO)cc3)C(Cc3ccccc3)C(O)C(O)C2Cc2ccccc2)c1` (stereo not drawn) [15WR], for which the Ki was below 0.01 µM.
The same measure, in the same setting: under `NC(=O)c1cccc(CN2C(=O)N(Cc3ccc(CO)cc3)C(Cc3ccccc3)C(O)C(O)C2Cc2ccccc2)c1` (stereo not drawn) [15WT] stands below 0.01 µM.
Consider `NC(=O)c1cccc(CN2C(=O)N(CC3CC3)C(Cc3ccccc3)C(O)C(O)C2Cc2ccccc2)c1` (stereo not drawn) [15WV], for which the Ki is below 0.01 µM.
With `NC(=O)c1cccc(CN2C(=O)NC(Cc3ccccc3)C(O)C(O)C2Cc2ccccc2)c1` (stereo not drawn) [15WW], the Ki was below 0.01 µM.
With `CNc1cccc(CN2C(=O)N(Cc3ccc4ccccc4c3)C(Cc3ccccc3)C(O)C(O)C2Cc2ccccc2)c1` (stereo not drawn) [15WZ], the Ki is below 0.01 µM.

Still in this data set, the particulars now being: read-out: HPLC Ki; Table 2m.
Turning to `O=S1(=O)N(Cc2ccc(CO)cc2)C(Cc2ccccc2)C(O)C(O)C(Cc2ccccc2)N1Cc1ccc(CO)cc1` (stereo not drawn) [23B], the Ki was below 0.01 µM.
Same read-out and setting: under `O=[N+]([O-])c1cccc(CN2C(Cc3ccccc3)C(O)C(O)C(Cc3ccccc3)N(Cc3cccc([N+](=O)[O-])c3)S2(=O)=O)c1` (stereo not drawn) [23L] stands 0.01 to 1 µM.
